Measurements reported in patent US20060089395A1, “Nf-kb activation inhibitors” (priority 2002, published 2006).
Entries after “also recorded” stand apart in the source; their conditions may differ. Where two headings read alike, the source gives them in different places.

How the values were obtained:
[1] = test system: type II collagen induced arthritis; assay: Inhibitory test against type II collagen induced arthritis in mice; assay type: in vivo, Balb/c mice; settings: 10 mg/kg intraperitoneally once in two days; day 44; score of the control = 100%
Protocol: Balb/c mice were immunized with heterologous type II collagen and Freund's complete adjuvant by subcutaneous or intraperitoneal injection. At 21 days after the treatment, these mice were immunized again with heterologous type II collagen and Freund's incomplete adjuvant by subcutaneous or intraperitoneal injection to develop arthritis.
A test substance suspended in an appropriate diluent or the diluent alone (negative control) was administered intraperitoneally once in two days from the day of the first immunization, and as for arthritis developed after the second immunization, clinical symptoms of each ankle joint of all foots were recorded day after day as numerous scores. When the score of the control measured on day 44 after administration of 10 mg/kg of the medicament of the present invention was expresses as 100%, rates of exacerbation (%) of the clinical symptoms of arthritis were 37.5 (Compound No. 4), 76.5 (Compound No. 90), 56.2 (Compound No. 11), 64.0 (Compound No. 88), and 0.0 (Compound No. 83).

IL-8 = assay: Inhibition of IL-8 production by TNFα stimulation in synovial fibroblasts derived from a rheumatoid patient (ELISA); assay type: cell-based, human; settings: for inhibition of the production of IL-8 (in words): rheumatic patient-derived synovial fibroblasts under TNFα stimulation; for IC50: synovial fibroblasts, 10 ng/ml TNFα, 3 days, read-out: Inhibition against Mediator Release IC50(nM) IL-8
Protocol: (§1) Synovial fibroblasts (Human Synoviocyte (RA-Positive), Toyobo, T4040-05) were cultured for 3 days in a medium containing 10 ng/ml of TNFα and a test compound. IL-6 and IL-8 in the supernatant were measured by the ELISA method, and PGE2 (prostaglandin E2) was measured by the EIA method.

IL-6 = assay: Inhibition of IL-6 production by TNFα stimulation in synovial fibroblasts derived from a rheumatoid patient (ELISA); assay type: cell-based, human; settings: for inhibition of the production of IL-6 (in words): rheumatic patient-derived synovial fibroblasts under TNFα stimulation; for IC50: synovial fibroblasts, 10 ng/ml TNFα, 3 days, read-out: Inhibition against Mediator Release IC50(nM) IL-6
Protocol: as §1

NF-κ B = assay: Inhibitory activity of NF-κ B activation, luciferase reporter assay in HepG2 under TNF-α stimulation; assay type: cell-based, human
Outline: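 Readout is firefly luciferase luminescence, expressed as inhibition versus compound-free wells. Before this, HepG2 cells carrying a transiently transfected 5×NF-κB-site luciferase plasmid (6–24 h post-transfection) received test compound plus TNF-α (40 ng/ml) for 4 h.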

[2] = test system: Vascular smooth muscle cells of normal coronary artery (Cryo CASMC); assay: Inhibitory test against proliferation of vascular smooth muscle cells of normal coronary artery under proliferation stimulation (MTS assay); assay type: cell-based; settings: FGF and EGF stimulation, 72 hours
Protocol: Vascular smooth muscle cells of normal coronary artery (Cryo CASMC) were cultured for 2 hours in the presence or absence of a test substance in DMEM medium containing 0.5% of FBS and insulin (5 u g/ml). Then, FGF and EGF were added for proliferation stimulation. The mixture was cultured for 72 hours and proliferation of the cells were measured by the MTS assay. The results aree shown in the following

PGE2 = assay: Inhibition of PGE2 production by TNFα stimulation in synovial fibroblasts derived from a rheumatoid patient (EIA); assay type: cell-based, human; settings: for inhibition of the production of PGE2 (in words): rheumatic patient-derived synovial fibroblasts under TNFα stimulation; for IC50: synovial fibroblasts, 10 ng/ml TNFα, 3 days, read-out: Inhibition against Mediator Release IC50(nM) PGE2
Protocol: as §1

[3] = test system: intestinal ischemic reperfusion-caused hepatopathy; assay: Rat intestinal ischemic reperfusion-caused hepatopathy model; assay type: in vivo; settings: intraperitoneal administration of 10 mg/kg
[4] = test system: artery abrasion restenosis; assay: Mouse artery abrasion restenosis model; assay type: in vivo; settings: intraperitoneal administration at 10 mg/kg
[5] = test system: myocardial ischemia reperfusion disorder; assay: Inhibitory test against myocardial ischemia reperfusion disorder in rats; assay type: in vivo, rat; settings: 5 mg/kg intraperitoneally; 24 hours after reperfusion
Protocol: Left coronary artery of 7 to 9 week-old rat was ligated to induce ischemic state. After 25 minutes, a test substance suspended in an appropriate diluent or the diluent alone (negative control) was intraperitoneally administered, and after 30 minutes, the animal was reperfused. After 24 hours, a rate of necrosis of an ischemic part of the cardiac muscle was measured.

Thy-1 nephritis = assay: Rat Thy-1 nephritis model; assay type: in vivo; settings: intraperitoneal administration of less than 15 mg/kg
myocarditis = assay: Rat myocarditis model immunized with pig heart-derived cardiac myosin; assay type: in vivo; settings: intraperitoneal administration at 10 mg/kg
[6] = 1 μg/mL, HepG2, TNF-α (40 ng/ml), 4 hours
[7] = 10 μg/mL, HepG2, TNF-α (40 ng/ml), 4 hours
[8] = Homo sapiens, 1 μg/mL, HepG2, TNF-α (40 ng/ml), 4 hours, read-out: Inhibitory Ratio of NF-κ B Activation(%) Drug Concentration 1 μg/mL
[9] = Homo sapiens, 10 μg/mL, HepG2, TNF-α (40 ng/ml), 4 hours, read-out: Inhibitory Ratio of NF-κ B Activation(%) Drug Concentration 10 μg/mL

Compound	rates of exacerbation (%) of the clinical symptoms of arthritis [1] [%]	inhibition of the production of IL-8 (in words) (IL-8)	inhibition of the production of IL-6 (in words) (IL-6)	Inhibitory Ratio of Proliferation(%) Compound Concentration 250 nM [2] [%]	Inhibitory Ratio of Proliferation(%) Compound Concentration 500 nM [2] [%]	inhibition of the production of PGE2 (in words) (PGE2)	inhibition at 1 µg/mL (NF-κ B; [8]) [%]	inhibition at 10 µg/mL (NF-κ B; [9]) [%]	IC50 (IL-6; Homo sapiens, Fibroblast, 72 h) [nM]	IC50 (PGE2; Homo sapiens, Fibroblast, 72 h) [nM]	further results
O=C(Nc1cc(C(F)(F)F)ccc1Cl)c1cc(Br)ccc1O [Compound No. 90]	76.5	potently inhibited; also recorded: strongly inhibited	potently inhibited; also recorded: strongly inhibited	89.5	95.2	potently inhibited; also recorded: strongly inhibited					IC50 (IL-8): 373 nM; IC50 (IL-6): 24 nM; Inhibitory Ratio of NF-κ B Activation(%) Drug Concentration 1 μg/mL (NF-κ B; [6]): 88.9%; Inhibitory Ratio of NF-κ B Activation(%) Drug Concentration 10 μg/mL (NF-κ B; [7]): 94.1%; IC50 (PGE2): 38 nM
O=C(Nc1cc(C(F)(F)F)ccc1C(F)(F)F)c1cc(Br)ccc1O [Compound No. 83]	0.0	potently inhibited; also recorded: strongly inhibited	potently inhibited; also recorded: strongly inhibited	27.1	87.9	potently inhibited; also recorded: strongly inhibited					IC50 (IL-8): 62 nM; IC50 (IL-6): < 10 nM; Inhibitory Ratio of NF-κ B Activation(%) Drug Concentration 1 μg/mL (NF-κ B; [6]): 95.7%; Inhibitory Ratio of NF-κ B Activation(%) Drug Concentration 10 μg/mL (NF-κ B; [7]): 98.3%; IC50 (PGE2): < 10 nM
O=C(Nc1cc(C(F)(F)F)cc(C(F)(F)F)c1)c1cc(C(=O)N2CCC(Cc3ccccc3)CC2)ccc1O [Compound No. 40, N-[3,5-Bis(trifluoromethyl)phenyl]-2-hydroxy-5-(4-benzylpiperidine-1-carbonyl)benzamide]							44.9	96			melting point: 179 to 180 °C
O=C(Nc1cc(C(F)(F)F)cc(C(F)(F)F)c1)c1cc(Cl)ccc1O [Compound No.4, N-[3,5-bis(trifluoromethylphenyl)]-5-chloro-2-hydroxybenzamide]	37.5			87.9	92.2		95.7	97.5	294	388	IC50 (IL-8; Homo sapiens, Fibroblast, 72 h): 450 nM; TNFα concentration in blood [3]: lowered; endotoxic levels in blood [3]: lowered endotoxic levels; inhibition of hepatopathy [3]: significantly inhibited hepatopathy; inhibition of proliferation of vascular endothelial cells and vascular smooth muscle cells [4]: significantly inhibited proliferation of vascular endothelial cells and vascular smooth muscle cells; inhibition at 0.1 µg/mL (NF-κ B; Homo sapiens, HepG2, 4 h, 0.1 μg/ml, comparison table, reporter assay, read-out: Inhibitory Ratio of NF-κB Activation (%) 0.1 μg/ml): 60.9%; inhibition at 1 µg/mL (NF-κ B; Homo sapiens, HepG2, 4 h, 1 μg/ml, comparison table, reporter assay, read-out: Inhibitory Ratio of NF-κB Activation (%) 1 μg/ml): 95.7%; inhibition at 10 µg/mL (NF-κ B; Homo sapiens, HepG2, 4 h, 10 μg/ml, comparison table, reporter assay, read-out: Inhibitory Ratio of NF-κB Activation (%) 10 μg/ml): 97.5%; inhibition of the necrosis of the cardiac muscle in comparison with the control [5]: 60%; renal protective action (Thy-1 nephritis): exhibited a renal protective action; inhibition of the onset of myocarditis (myocarditis): significantly also inhibited the onset of myocarditis
O=C(Nc1cc(C(F)(F)F)ccc1Cl)c1cc(Cl)ccc1O [Compound No. 88, 5-chloro-N-[2-chloro-5-(trifluoromethyl)phenyl]-2-hydroxybenzamide]	64.0	potently inhibited; also recorded: strongly inhibited	potently inhibited; also recorded: strongly inhibited			potently inhibited; also recorded: strongly inhibited	94.8	97.1	88	33	
CC(C)(C)c1ccc(O)c(C(=O)Nc2cc(C(F)(F)F)cc(C(F)(F)F)c2)c1 [compound 11, N-[3,5-Bis(trifluoromethyl)phenyl]-5-[(1,1-dimethyl)ethyl]-2-hydroxybenzamide]	56.2			86.7	91.4		92.9	98.3	247	389	IC50 (IL-8; Homo sapiens, Fibroblast, 72 h): 377 nM
CC(=O)Oc1ccccc1C(=O)Nc1cc(Cl)cc(Cl)c1 [Compound No. 120, 2-acetoxy-N-(3,5-dichlorophenyl)benzamide]							88.6	97.5			melting point: 218 to 219 °C
